Experiment: refractive index (other wavelength) (dimensionless); xn = mol fraction of the nth substance listed
Settings: 101 kPa, Liquid, Standard Abbe refractometry

CC(C)OC(C)C [diisopropyl ether] + CO
Settings | refractive index
313.15 K, Wavelength=644 nm, x2 = 0.9527 | 1.32574
313.15 K, Wavelength=644 nm, x2 = 0.9773 | 1.32248
313.15 K, Wavelength=644 nm, x2 = 0.989 | 1.3213
313.15 K, Wavelength=644 nm, x2 = 0.9964 | 1.32034
313.15 K, Wavelength=706.5 nm, x2 = 0 | 1.35401
313.15 K, Wavelength=706.5 nm, x2 = 0.0423 | 1.35395
313.15 K, Wavelength=706.5 nm, x2 = 0.0424 | 1.35398
313.15 K, Wavelength=706.5 nm, x2 = 0.082 | 1.35392
313.15 K, Wavelength=706.5 nm, x2 = 0.0822 | 1.35411
313.15 K, Wavelength=706.5 nm, x2 = 0.1171 | 1.35398
313.15 K, Wavelength=706.5 nm, x2 = 0.1271 | 1.35399
313.15 K, Wavelength=706.5 nm, x2 = 0.1827 | 1.35378
313.15 K, Wavelength=706.5 nm, x2 = 0.2162 | 1.35364
313.15 K, Wavelength=706.5 nm, x2 = 0.251 | 1.35322
313.15 K, Wavelength=706.5 nm, x2 = 0.3298 | 1.35329
313.15 K, Wavelength=706.5 nm, x2 = 0.3577 | 1.35251
313.15 K, Wavelength=706.5 nm, x2 = 0.4497 | 1.35124
313.15 K, Wavelength=706.5 nm, x2 = 0.4525 | 1.35165
313.15 K, Wavelength=706.5 nm, x2 = 0.522 | 1.34954
313.15 K, Wavelength=706.5 nm, x2 = 0.609 | 1.34648
313.15 K, Wavelength=706.5 nm, x2 = 0.6529 | 1.34501
313.15 K, Wavelength=706.5 nm, x2 = 0.7504 | 1.34121
313.15 K, Wavelength=706.5 nm, x2 = 0.804 | 1.33693
313.15 K, Wavelength=706.5 nm, x2 = 0.807 | 1.33702
313.15 K, Wavelength=706.5 nm, x2 = 0.8727 | 1.33354
313.15 K, Wavelength=706.5 nm, x2 = 0.9233 | 1.32582
313.15 K, Wavelength=706.5 nm, x2 = 0.9253 | 1.32745
313.15 K, Wavelength=706.5 nm, x2 = 0.9527 | 1.32454
313.15 K, Wavelength=706.5 nm, x2 = 0.9773 | 1.32131
313.15 K, Wavelength=706.5 nm, x2 = 0.989 | 1.32103
313.15 K, Wavelength=706.5 nm, x2 = 0.9964 | 1.31919
318.15 K, Wavelength=40.47 nm, x2 = 0 | 1.36447
318.15 K, Wavelength=40.47 nm, x2 = 0.0423 | 1.36444
318.15 K, Wavelength=40.47 nm, x2 = 0.0424 | 1.3644
318.15 K, Wavelength=40.47 nm, x2 = 0.082 | 1.36442
318.15 K, Wavelength=40.47 nm, x2 = 0.0822 | 1.36413
318.15 K, Wavelength=40.47 nm, x2 = 0.1171 | 1.36444
318.15 K, Wavelength=40.47 nm, x2 = 0.1271 | 1.36445
318.15 K, Wavelength=40.47 nm, x2 = 0.1827 | 1.36427
318.15 K, Wavelength=40.47 nm, x2 = 0.2162 | 1.36415
318.15 K, Wavelength=40.47 nm, x2 = 0.251 | 1.3636
318.15 K, Wavelength=40.47 nm, x2 = 0.3298 | 1.36408
318.15 K, Wavelength=40.47 nm, x2 = 0.3577 | 1.36296
318.15 K, Wavelength=40.47 nm, x2 = 0.4497 | 1.36174
318.15 K, Wavelength=40.47 nm, x2 = 0.4525 | 1.36248
318.15 K, Wavelength=40.47 nm, x2 = 0.522 | 1.35999
318.15 K, Wavelength=40.47 nm, x2 = 0.5543 | 1.35901
318.15 K, Wavelength=40.47 nm, x2 = 0.609 | 1.35666
318.15 K, Wavelength=40.47 nm, x2 = 0.6529 | 1.35514
318.15 K, Wavelength=40.47 nm, x2 = 0.7504 | 1.35095
318.15 K, Wavelength=40.47 nm, x2 = 0.804 | 1.34473
318.15 K, Wavelength=40.47 nm, x2 = 0.807 | 1.3465
318.15 K, Wavelength=40.47 nm, x2 = 0.8727 | 1.34338
318.15 K, Wavelength=40.47 nm, x2 = 0.9233 | 1.33515
318.15 K, Wavelength=40.47 nm, x2 = 0.9253 | 1.33682
318.15 K, Wavelength=40.47 nm, x2 = 0.9527 | 1.33369
318.15 K, Wavelength=40.47 nm, x2 = 0.9773 | 1.33062
318.15 K, Wavelength=40.47 nm, x2 = 0.989 | 1.32932
318.15 K, Wavelength=40.47 nm, x2 = 0.9964 | 1.32844
318.15 K, Wavelength=435.8 nm, x2 = 0 | 1.36157
318.15 K, Wavelength=435.8 nm, x2 = 0.0423 | 1.36155
318.15 K, Wavelength=435.8 nm, x2 = 0.0424 | 1.36152
318.15 K, Wavelength=435.8 nm, x2 = 0.082 | 1.36153
318.15 K, Wavelength=435.8 nm, x2 = 0.0822 | 1.36167
318.15 K, Wavelength=435.8 nm, x2 = 0.1171 | 1.36159
318.15 K, Wavelength=435.8 nm, x2 = 0.1271 | 1.36158
318.15 K, Wavelength=435.8 nm, x2 = 0.1827 | 1.3614
318.15 K, Wavelength=435.8 nm, x2 = 0.2162 | 1.36132
318.15 K, Wavelength=435.8 nm, x2 = 0.251 | 1.36074
318.15 K, Wavelength=435.8 nm, x2 = 0.3298 | 1.36122
318.15 K, Wavelength=435.8 nm, x2 = 0.3577 | 1.36012
318.15 K, Wavelength=435.8 nm, x2 = 0.4497 | 1.35893
318.15 K, Wavelength=435.8 nm, x2 = 0.4525 | 1.35967
318.15 K, Wavelength=435.8 nm, x2 = 0.522 | 1.3572
318.15 K, Wavelength=435.8 nm, x2 = 0.5543 | 1.35624
318.15 K, Wavelength=435.8 nm, x2 = 0.609 | 1.35398
318.15 K, Wavelength=435.8 nm, x2 = 0.6529 | 1.35244
318.15 K, Wavelength=435.8 nm, x2 = 0.7504 | 1.34832
318.15 K, Wavelength=435.8 nm, x2 = 0.804 | 1.34218
318.15 K, Wavelength=435.8 nm, x2 = 0.807 | 1.34393
318.15 K, Wavelength=435.8 nm, x2 = 0.8727 | 1.34082
318.15 K, Wavelength=435.8 nm, x2 = 0.9233 | 1.33279
318.15 K, Wavelength=435.8 nm, x2 = 0.9253 | 1.33442
318.15 K, Wavelength=435.8 nm, x2 = 0.9527 | 1.33136
318.15 K, Wavelength=435.8 nm, x2 = 0.9773 | 1.32834
318.15 K, Wavelength=435.8 nm, x2 = 0.989 | 1.32708
318.15 K, Wavelength=435.8 nm, x2 = 0.9964 | 1.32617
318.15 K, Wavelength=486.1 nm, x2 = 0 | 1.35832
318.15 K, Wavelength=486.1 nm, x2 = 0.0423 | 1.35829
318.15 K, Wavelength=486.1 nm, x2 = 0.0424 | 1.35828
318.15 K, Wavelength=486.1 nm, x2 = 0.082 | 1.35827
318.15 K, Wavelength=486.1 nm, x2 = 0.0822 | 1.35838
318.15 K, Wavelength=486.1 nm, x2 = 0.1171 | 1.35824
318.15 K, Wavelength=486.1 nm, x2 = 0.1271 | 1.35832

Source: the NIST ThermoML archive (doi:10.1016/j.fluid.2014.09.014)
